Experimental data: article PMC7606276, “The Antibacterial Effects of New N-Alkylpyridinium Salts on Planktonic and Biofilm Bacteria” (Frontiers in Microbiology, 2020)
Where two headings read alike, the source gives them in different places.

Legend:
CHO-K1 cells = experiment: MTT cell viability assay on CHO-K1 cells; assay type: cell-based, Chinese hamster; settings: 24 h exposure
Method: Standard MTT assay (3-(4,5-dimethylthiazol-2-yl)-2,5-diphenyltetrazolium bromide; Sigma-Aldrich, Prague, Czechia) was used according to the manufacturer’s protocol on the CHO-K1 (Chinese hamster ovary, ECACC, Salisbury, United Kingdom) in order to compare the effect of different compounds within the series. The cells were cultured according to ECACC recommended conditions and seeded in a density of 8000 per well as described previously ([Soukup et al., 2020]). […] Thereafter, CHO-K1 cells were exposed to two-fold diluted series A, B, C or ten-fold diluted sodium hypochlorite for 24 h. Then the medium was replaced by a medium containing 0.5 mg/ml of MTT and the cells were allowed to produce formazan for approximately 3 h under surveillance. Thereafter, the medium with MTT was removed and crystals of formazan were dissolved in DMSO (100 μl/well). Cell viability was assessed spectrophotometrically by the amount of formazan produced. The absorbance was measured at 570 nm on Synergy HT (BioTek, Winooski, VT, United States). IC50 (half maximal inhibitory concentration) was then calculated from the control – subtracted triplicates using non-linear regression (four parameters) by GraphPad Prism 5.03 or 7.03 software (GraphPad Software Inc., San Diego, CA, United States). Final IC50 and SEM (standard error of the mean) values were obtained as a mean of three independent measurements.

[1] = tested on: E. faecalis biofilms on titanium surface; experiment: Biofilm susceptibility assay, live/dead staining CLSM; assay type: cell-based, Enterococcus faecalis; settings: for biofilm surface coverage change during the treatment: 1, 3 and 60 min of treatment; for proportion of live cells in biofilm: after 60 min of treatment
Method: To grow the biofilms, an overnight culture of E. faecalis (average viable bacterial concentration of 1 × 10^8 CFU/ml) was diluted 100-fold in BHI. E. faecalis biofilms were formed on titanium radial disks (commercially pure titanium, grade 2) with 7 mm diameter and 1 mm thickness. Prior to the experiments all disks were sandblasted (FerroEcoBlast Europe; Microblast ceramic beads B120) to expose fresh titanium surface, cleaned in 70% ethanol and autoclaved at 134°C for 20 min. The biofilms were grown for 3 days at 37°C ± 1°C without shaking or changing of media to achieve a surface coverage of approximately 25% and a surface bacterial density of ∼1.5 × 10^11 bacteria […]. Biofilms grown on a titanium surface were exposed to 1.5 ml of A14, B14, and C14 dissolved in BHI for 1, 3, and 60 min. After treatment the individual disks were rinsed with saline solution to remove QACs as well as unattached bacteria. In laser treated biofilms samples were treated with QACs for 1 min followed by 10 s of Er:YAG – SSP laser treatment. The LightWalker Er:YAG (Fotona, Ljubljana, Slovenia) was set with the following parameters: laser wavelength 2940 nm; contact handpiece H14, Flat Sweeps fiber tip 400/14 positioned 5 mm above the biofilm disk, energy 20 mJ, frequency 15 Hz, water off, air off, single pulse modality – SSP (super short pulse – 50 μs). The titanium disks with their biofilm were positioned at the bottom of cylindrical irrigation system (7.5 mm diameter and 2 cm high) in the presence of 1.5 ml of either saline or the QAC dissolved in BHI. The antibacterial concentration was 250 μM which was the highest soluble QAC concentration in BHI broth. The rinsed biofilms were stained with 5 μL of premixed saline-diluted Syto 9 and propidium iodide stock solutions (1: 300) from LIVE/DEAD^TM BacLight^TM Bacterial Viability Kit L7012 (Thermo Fisher Scientific, Eugene, OR, United States). After 5 min of incubation in the dark the samples were observed by fluorescence microscope Zeiss Axio Observer Z1 equipped with confocal unit LSM 800 (CLSM). Z-stacks and tiles were taken at 100× or 20× magnification at three randomly selected view fields. Image acquisition and control of the microscope were performed with ZEN 2.3 (ZEISS GmbH, Germany). For the 100× magnification, blue 488 nm and yellow 561 nm lasers were set to 1% intensity, GaAsP PMT detectors to 700 V, pinhole to 71 μm, and the size of the acquired 8-bit images was 3476 × 3476 pixels. For the 20× magnification, blue 488 nm and yellow 561 nm lasers were set to 0.85% intensity, GaAsP PMT detectors to 700 V, pinhole to 50 μm and the size of acquired 8-bit images was 1306 × 1306 pixels. The typical Z-step of the Z-stack was 1 μm for 100× magnification and 3.26 μm for 20× magnification. The images were composed of four different view fields. A custom script was written (Image J) and used to evaluate the effect of treatment on the fraction of dead cells and biofilm surface coverage.

[2] = tested on: E. faecalis plankton and biofilm; experiment: Comparison of effectiveness in plankton and biofilm (matched fraction of dead cells); assay type: cell-based, Enterococcus faecalis; settings: for dilution in plankton needed to match the fraction of dead cells in the biofilm: high density E. faecalis suspension 2.4 × 10^9 CFU/mL
Source text: In plankton suspensions we were able to reach bactericidal concentration for all tested QACs. The situation was quite different in biofilms. The concentrations that work in plankton were not sufficient to kill all bacteria in the biofilm. […] Unfortunately, due to the solubility limit, it was not possible to increase the concentration of the QACs to concentrations that would kill all bacteria in the biofilm. Nevertheless, we can compare the effectiveness in plankton and biofilm if we decrease the concentration of biocide in the plankton to match the fraction of the dead cells in the biofilm. […] The experiment was performed at high density E. faecalis suspensions (2.4 × 10^9 CFU/mL) to mimic the high density of bacteria in a biofilm. By comparing QACs effectiveness at high initial planktonic densities we have largely eliminated the effect of the bacterial density and estimated the effect of biofilm induced changes on QACs sensitivity. One has to be careful, however, as bacterial cells in plankton differ from biofilm not only in cell density but also in cell metabolism and extracellular matrix viscoelasticity. To match the fraction of dead cells in the biofilm, the 10-fold dilution of compounds A14 and B14 were needed, whereas only 4-fold dilution of compound C14 was required. […] The activity of QACs in biofilms relative to plankton was two orders of magnitude […] than usually reported in the literature. Although our biofilms were mature, they were relatively thin (up to 10 μm) which may explain the relatively high efficiency of the QACs against biofilms. Similar observations have been made for S. mutans biofilms, where biofilm cells were only 8 times less susceptible to QACs compared to plankton bacteria ([López Pérez et al., 2017]).

Human alveolar cells = tested on: Human alveolar cells; design: method as in Kwon et al., 2019; settings: cytotoxicity, ref Kwon et al., 2019; cited from earlier work
[3] = tested on: osteosarcoma cybrid cells; design: method as in Datta et al., 2017; settings: cytotoxicity, ref Datta et al., 2017; cited from earlier work
human hepatoma cell line = tested on: human hepatoma cell line; design: method as in Christen et al., 2017; settings: cytotoxicity, ref Christen et al., 2017; cited from earlier work
[4] = tested on: Enterococcus faecalis DSM 16431; experiment: MBC of planktonic E. faecalis at different initial bacterial densities; assay type: cell-based
Method: The antibacterial susceptibility of planktonic bacteria was determined by the broth microdilution method according to the standard M07-A1 ([CLSI, 2018]) and optimized as described previously ([Marek et al., 2015]; [Dolezal et al., 2016]). All antibacterial compounds were dissolved in dimethyl sulfoxide (DMSO p.a., Sigma-Aldrich, Prague, Czechia). The wells of the 96-well microtiter plates contained 200 μL of Mueller-Hinton broth (MHB, HiMedia, Cadersky-Envitek, Prague, Czechia) with two-fold serial dilutions of the QACs (500–0.49 μmol/L) and were inoculated with 10 μL of exponentially grown bacterial suspension adjusted densitometrically to match 0.5 McFarland scale. […] The MBCs were determined for all prepared compounds as the concentrations that provided ≥99.9% decrease in the bacterial number after subculture of 10 μL aliquots from each microtiter well in a corresponding new microtiter plate where each well contained 200 μL of fresh MHB. The MBC was determined as the lowest concentration which corresponded to a well without visible bacterial growth after a further 24 h of incubation at 35 ± 1°C. To ensure that no bacteria had survived, the content of the well was inoculated on an agar plate to confirm the absence of bacterial growth.
To evaluate the effect of bacterial density on the antibacterial activity of the QACs, E. faecalis suspensions from an overnight culture were prepared in the range from 10^6 to 10^10 CFU/mL in Brain Heart Infusion broth (BHI, VWR International BVBA, Leuven, Belgium) by either diluting or concentrating bacterial suspensions. The MBCs corresponding to E. faecalis suspensions with different initial bacterial densities were determined only for the compound A14 in the concentration range between 500 and 0.49 μM prepared by 2-fold serial dilutions. The MBCs were evaluated as described above after the bacteria were exposed to the QACs for 3 min, 60 min or 24 h. The growth rate of tested E. faecalis suspensions at different initial bacterial densities was monitored every 30 min during 7 h of incubation by measuring the optical density (OD600). The values were fitted with the logistic equation

For CCCCCCCCCCCCCC[n+]1ccn(CCO)c1.[Br-] [Compound C14, 3-tetradecyl-1-(2-hydroxyethyl)imidazolium bromide], the IC50 (CHO-K1 cells; Cricetulus griseus) was 1.19 ± 0.9 µM, the “biofilm surface coverage change during the treatment” value ([1]; 250 μM) was “did not change significantly” and the “fraction of dead cells in biofilm” value ([1]; after 1 min of treatment, 250 μM) was “majority of cells in the biofilm were dead”. The “fraction of dead bacteria in biofilm” value ([1]; after 3 min of treatment, 250 μM) was 86 ± 4%, the “proportion of live cells in biofilm” value ([1]; 250 μM) was 3% and the “resistance of biofilm bacteria compared to planktonic bacteria” value [2] was 4 fold. The “dilution in plankton needed to match the fraction of dead cells in the biofilm” value [2] was 4 fold.
In the case of CCCCCCCCCCCC[n+]1ccn(CCO)c1 [Compound C12], the IC50 (CHO-K1 cells; Cricetulus griseus) is reported as 1.43 ± 3 µM.
CCCCCCCCCCCC[n+]1cccc(Cl)c1.[Br-] [Compound B12, 1-dodecyl-3-chloropyridinium bromide] showed an IC50 (CHO-K1 cells; Cricetulus griseus) of 25.5 ± 2.5 µM and a melting point of 68.5 to 69.2 °C.
In the case of [Na+].[O-]Cl [Sodium hypochlorite, reference compound], the IC50 (CHO-K1 cells) is reported as 6.45 ± 1.1 µM and the biofilm coverage ([1]; after 1 min of exposure, 3% V/V, positive control) is reported as “below 1%”.
Molecule CCCCCCCCCCCC[n+]1ccccc1 [Compound A12, 1-dodecylpyridinium] has an IC50 (CHO-K1 cells; Cricetulus griseus) of 38.8 ± 0.9 µM.
In the case of benzalkonium chloride, the IC50 (Human alveolar cells) is given as roughly 14.8 µM, the IC50 [3] is given as roughly 22.8 µM and the EC50 (human hepatoma cell line) is given as roughly 12.4 µM.
In the case of CCCCCCCCCCCCCCCC[n+]1ccn(CCO)c1 [Compound C16], the IC50 (CHO-K1 cells; Cricetulus griseus) is reported as 1.03 ± 1 µM and the melting point is reported as 49.2 to 50.1 °C.
In the case of CCCCCCCCCCCCCC[n+]1cccc(Cl)c1.[Br-] [Compound B14, 1-tetradecyl-3-chloropyridinium bromide], the IC50 (CHO-K1 cells; Cricetulus griseus) is reported as 17.2 ± 1.3 µM, the “biofilm surface coverage change during the treatment” value ([1]; 250 μM) is reported as “did not change significantly” and the “proportion of live cells in biofilm” value ([1]; 250 μM) is reported as 14%. The “dilution in plankton needed to match the fraction of dead cells in the biofilm” value [2] was 10 fold.
For CCCCCCCCCCCCCC[n+]1ccccc1 [Compound A14], the MBC ([4]; DSM16431, 0.05 h, 3 min exposure, initial CFU/mL 10^6, read-out: MBC 3 min) was 63 µM, the MBC ([4]; DSM16431, 0.05 h, 3 min exposure, initial CFU/mL 10^7, read-out: MBC 3 min) was 63 µM and the MBC ([4]; DSM16431, 0.05 h, 3 min exposure, initial CFU/mL 10^8, read-out: MBC 3 min) was 31 to 63 µM. For the same molecule, the MBC ([4]; DSM16431, 0.05 h, 3 min exposure, initial CFU/mL 10^9, read-out: MBC 3 min) was 250 µM, the MBC ([4]; DSM16431, 0.05 h, 3 min exposure, initial CFU/mL 10^10, read-out: MBC 3 min) was greater than 250 µM and the MBC ([4]; DSM16431, 1 h, 60 min exposure, initial CFU/mL 10^6, read-out: MBC 60 min) was 31 µM. The MBC ([4]; DSM16431, 1 h, 60 min exposure, initial CFU/mL 10^7, read-out: MBC 60 min) was 31 µM, the MBC ([4]; DSM16431, 1 h, 60 min exposure, initial CFU/mL 10^8, read-out: MBC 60 min) was 63 µM and the MBC ([4]; DSM16431, 1 h, 60 min exposure, initial CFU/mL 10^9, read-out: MBC 60 min) was 125 µM. For the same molecule, the MBC ([4]; DSM16431, 1 h, 60 min exposure, initial CFU/mL 10^10, read-out: MBC 60 min) was 250 µM, the MBC ([4]; DSM16431, 24 h, 24 h exposure, initial CFU/mL 10^6, read-out: MBC 24 h) was 16 to 31 µM and the MBC ([4]; DSM16431, 24 h, 24 h exposure, initial CFU/mL 10^7, read-out: MBC 24 h) was 16 to 31 µM. The MBC ([4]; DSM16431, 24 h, 24 h exposure, initial CFU/mL 10^8, read-out: MBC 24 h) was 31 µM, the MBC ([4]; DSM16431, 24 h, 24 h exposure, initial CFU/mL 10^9, read-out: MBC 24 h) was 31 to 63 µM and the MBC ([4]; DSM16431, 24 h, 24 h exposure, initial CFU/mL 10^10, read-out: MBC 24 h) was 250 µM. The MBC ([4]; DSM16431, 24 h, after 24 h, 10^6 CFU/ml initial bacterial density, read-out: relative MBC value per bacterial cell) was 2.1e-05 µM, the MBC ([4]; DSM16431, 24 h, after 24 h, 10^10 CFU/ml initial bacterial density, read-out: relative MBC value per bacterial cell) was 2.7e-08 µM and the IC50 (CHO-K1 cells; Cricetulus griseus) was 24.7 ± 0.2 µM. For the same molecule, the “biofilm surface coverage change during the treatment” value ([1]; 250 μM) was “did not change significantly”, the “proportion of live cells in biofilm” value ([1]; 250 μM) was 18% and the “dilution in plankton needed to match the fraction of dead cells in the biofilm” value [2] was 10 fold.
CCCCCCCCCCCCCCCC[n+]1cccc(Cl)c1.[Br-] [Compound B16, 1-hexadecyl-3-chloropyridinium bromide] gave an IC50 (CHO-K1 cells; Cricetulus griseus) of 12.5 ± 1.1 µM and a melting point of 91.4 to 92.2 °C.
